One compound from article PMC7281280, “Is the Way to Fight Cancer Paved with Gold? Metal-Based Carbene Complexes with Multiple and Fascinating Biological Features” (Pharmaceuticals, 2020) can be followed below.

One assay concerns tubulin. As to the kind of experiment: In vitro tubulin-polymerization assay (turbidity at 350 nm). The assay is classed as biochemical. Conditions: 10 µM. As to the method: Tubulin-polymerization inihibition was measured using in vitro Tubulin-Polymerization Assay Kit purchased fromEMD Millipore Corporation. Polymerization reactions occur in 70 µL final volumes, of which 60 µL is the 60 µM tubulin in 1 × PB-GTP and 10 µL is the test substance dissolved in 1 × PB-GTP. […] These reactives were combined in 96-well plate on ice. After the plate was transferred into the spectrophotometer pre-warmed at 37 °C and the turbidity variation was measured every 30 s at 350 nm for 90 min. The plate was shaked for 10 s before each measurement. Turbidity (absorbance) readings were used to calculate the extent of polymerization [% inhibition = (1−A350 sample/A350 control) × 100].
Figure 4 Tubulin-polymerization assay. […] Two positive control molecules, Paclitaxel and Vinblastine, were used as tubulin-stabilizing and tubulin-destabilizing agents, respectively. DMSO was used as a negative control. Assembly of tubulin into microtubules was determined by measuring the turbidity at 350 nm for 3600 s at 37 °C. All the compounds were used at a concentration of 10 μM.

A further assay relates to HeLa cells. As to the kind of experiment: Immunofluorescence of microtubules, HeLa. The assay is classed as cell-based, human. The note with it: at IC50 value, 24 h. On the procedure:
Cells were grown on glass coverslips in full media, then serum-deprived for 24 h and exposed to compounds for 24 h (concentration equal to its IC50 value). Then, the cells after PBS-washed, were fixed with cold methanol (15 min/−20 °C) and incubated with primary antibody, diluted in blocking solution (4 °C/overnight), as previously described. The mouse anti-β-Actin (69879) and the rabbit anti-β tubulin (9104) were purchased from Santa Cruz Biotechnology and used at 1:100 dilution. Coverslips were then washed 3 times with PBS, then fixed cells were incubated with the secondary antibody Alexa Fluor® 568 conjugate goat-anti-mouse and Alexa Fluor® 488 conjugate goat-anti-rabbit (1:500, Thermo Fisher Scientific, Waltham, MA, USA). Nuclei were stained using DAPI (Sigma–Aldrich, Mila, Italy) for 10 min at a concentration of 0.2 μg/mL then washed 3 times with PBS. Fluorescence was detected using a fluorescence microscope (Leica DM 6000). LAS-X software was used to acquire and process all images.
Figure 6 Immunofluorescence studies. HeLa cells were treated with AuL4, Vinblastine, Paclitaxel (used at their IC50 values) or with a vehicle (CTRL) for 24 h. After treatment, the cells were methanol fixed, incubated with primary and secondary antibodies, stained with DAPI and observed and imaged under the inverted fluorescence microscope at 20× magnification (see Materials and methods). […] Panels A: DAPI, excitation/emission wavelength 350 nm/460 nm; panels B: β-tubulin (Alexa Fluor® 488) excitation/emission wavelength 490 nm/515 nm; panels C show a merge. Representative fields are shown.

Assay [1] addresses T1, human topoisomerase I (hTopo I) (Homo sapiens, UniProt P11387).
T1 construct: purchased TopoGEN, Port Orange, FL, USA
T1 sequence (P11387 1-765): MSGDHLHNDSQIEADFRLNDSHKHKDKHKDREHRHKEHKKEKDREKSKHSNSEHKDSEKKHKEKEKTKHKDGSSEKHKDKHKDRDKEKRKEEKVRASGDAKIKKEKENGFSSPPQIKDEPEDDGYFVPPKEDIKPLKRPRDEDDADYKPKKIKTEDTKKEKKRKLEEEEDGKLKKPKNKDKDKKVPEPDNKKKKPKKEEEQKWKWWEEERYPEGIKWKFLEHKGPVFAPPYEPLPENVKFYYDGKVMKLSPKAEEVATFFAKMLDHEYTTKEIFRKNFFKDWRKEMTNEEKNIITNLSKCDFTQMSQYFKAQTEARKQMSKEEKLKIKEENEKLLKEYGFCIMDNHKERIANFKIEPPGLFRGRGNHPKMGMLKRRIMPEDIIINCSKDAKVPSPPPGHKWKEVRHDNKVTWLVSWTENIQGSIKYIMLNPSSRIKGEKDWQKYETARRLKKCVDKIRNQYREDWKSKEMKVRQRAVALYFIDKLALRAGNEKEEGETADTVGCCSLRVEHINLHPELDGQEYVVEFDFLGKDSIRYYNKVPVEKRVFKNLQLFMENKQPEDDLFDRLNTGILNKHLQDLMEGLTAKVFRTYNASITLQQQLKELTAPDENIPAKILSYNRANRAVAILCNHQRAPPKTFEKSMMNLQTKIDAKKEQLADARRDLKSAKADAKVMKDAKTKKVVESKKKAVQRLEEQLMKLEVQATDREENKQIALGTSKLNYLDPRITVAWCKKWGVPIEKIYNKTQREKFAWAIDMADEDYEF
As to the kind of experiment: Human topoisomerase I relaxation assay. The assay is classed as biochemical. Conditions: 1 μM. As to the method: Topoisomerases are essential enzymes involved in DNA metabolism, because of their ability to cause temporary DNA strand breakage, and tightly involved, if overexpressed, in cancer development.
hTopo I relaxation assays have been performed in a final volume of […], as reported by Iacopetta et al., incubating […] of supercoiled plasmid pHOT1 in Tris-EDTA (TE) buffer (TopoGEN, Port Orange, FL, USA) with tested compounds and recombinant hTopo I (2 units) (TopoGEN, Port Orange, FL, USA) for 1h at 37 °C. The obtained solution has been loaded in a 1% agarose gel containing 1× Tris-acetate-EDTA (TAE) buffer without ethidium bromide (EB). Agarose gel has been stained using 1× TAE buffer with EB ([…]) for 30 min and after washed with distilled water for 15 min. At the end, it has been visualized by using a ultraviolet (UV) transilluminator. The experiment was performed in triplicate.
Figure 7 hTopoI assay.

Assay [2] deals with T2, human topoisomerase II (hTopo II) (Homo sapiens, UniProt P11388).
T2 construct: purchased topoGEN, Port Orange, FL, USA
As to the kind of experiment: Human topoisomerase II decatenation assay. The assay is classed as biochemical. The note with it: 1 μM. As to the method:
Decatenated and linear kDNA (Figure 8, lanes 1 and 2) are used as markers.
hTopo II decatenation assays were performed in a final volume of […], as reported by Iacopetta et al., using […] of kinetoplast DNA (kDNA) (topoGEN, Port Orange, FL, USA), tested compounds and 3 units of hTopo II (topoGEN, Port Orange, FL, USA). The reaction products were loaded in an agarose gel with EB. At the end, the gel was washed with distilled water and analyzed using a UV transilluminator. The experiment was repeated three times.
Lane 1 and 2, decatenated and linear kDNA, respectively.

Each structure is given as a SMILES string.

T2 sequence (P11388 whole entry): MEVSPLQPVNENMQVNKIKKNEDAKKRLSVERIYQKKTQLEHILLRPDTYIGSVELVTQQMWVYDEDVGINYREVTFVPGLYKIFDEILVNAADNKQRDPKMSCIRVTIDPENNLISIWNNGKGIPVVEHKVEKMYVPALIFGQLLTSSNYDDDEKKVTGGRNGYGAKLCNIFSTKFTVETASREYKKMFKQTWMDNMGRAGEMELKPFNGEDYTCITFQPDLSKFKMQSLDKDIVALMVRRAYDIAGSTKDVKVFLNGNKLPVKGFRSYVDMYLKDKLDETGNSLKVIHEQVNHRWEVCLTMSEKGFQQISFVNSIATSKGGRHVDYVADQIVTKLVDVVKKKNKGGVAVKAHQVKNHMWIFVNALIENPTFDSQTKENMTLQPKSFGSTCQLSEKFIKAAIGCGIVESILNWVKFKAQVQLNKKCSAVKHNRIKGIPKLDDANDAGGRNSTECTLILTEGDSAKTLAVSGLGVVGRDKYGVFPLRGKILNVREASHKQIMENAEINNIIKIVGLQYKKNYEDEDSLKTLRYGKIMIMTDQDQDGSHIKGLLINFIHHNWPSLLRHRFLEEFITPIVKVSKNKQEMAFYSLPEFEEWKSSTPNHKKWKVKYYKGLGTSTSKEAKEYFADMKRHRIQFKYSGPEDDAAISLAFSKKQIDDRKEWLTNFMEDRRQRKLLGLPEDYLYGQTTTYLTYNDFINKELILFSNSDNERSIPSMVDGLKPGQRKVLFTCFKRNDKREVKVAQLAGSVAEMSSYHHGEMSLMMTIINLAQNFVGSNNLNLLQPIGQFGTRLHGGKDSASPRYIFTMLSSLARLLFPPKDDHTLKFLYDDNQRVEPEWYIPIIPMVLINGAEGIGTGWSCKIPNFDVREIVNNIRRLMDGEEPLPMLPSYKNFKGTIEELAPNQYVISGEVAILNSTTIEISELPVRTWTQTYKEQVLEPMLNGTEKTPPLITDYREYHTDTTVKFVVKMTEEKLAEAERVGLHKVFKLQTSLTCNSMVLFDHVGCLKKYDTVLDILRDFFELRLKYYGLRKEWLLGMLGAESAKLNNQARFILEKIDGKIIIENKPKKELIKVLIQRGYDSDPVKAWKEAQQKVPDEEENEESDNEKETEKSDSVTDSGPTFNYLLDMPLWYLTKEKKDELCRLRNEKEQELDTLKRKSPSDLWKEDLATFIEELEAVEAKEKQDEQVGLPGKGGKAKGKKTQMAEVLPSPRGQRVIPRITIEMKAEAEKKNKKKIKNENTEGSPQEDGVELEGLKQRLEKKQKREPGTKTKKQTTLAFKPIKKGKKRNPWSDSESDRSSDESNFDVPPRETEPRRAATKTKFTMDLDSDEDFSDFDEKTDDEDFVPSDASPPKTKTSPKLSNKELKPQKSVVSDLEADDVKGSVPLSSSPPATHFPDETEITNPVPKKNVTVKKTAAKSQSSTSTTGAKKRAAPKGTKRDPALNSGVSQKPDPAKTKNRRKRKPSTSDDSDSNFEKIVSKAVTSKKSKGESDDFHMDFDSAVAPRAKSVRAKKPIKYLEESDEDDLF

As to `C[n+]1c(Cl)c(Cl)n(C2CCCC2O)[c]1[Au-][c]1n(C2CCCC2O)c(Cl)c(Cl)[n+]1C.[Cl][Au-][Cl]` (racemic) [AuL4, bis-[4,5-dichloro-(N-methyl-N’(cyclopentane-2ol)-imidazole-2-ylidine)gold(I)]^+[dichloro-gold]^−], the “effect on tubulin-polymerization reaction” value in the assay on tubulin is reported as “seems not to hamper the tubulin-polymerization reaction”. In the assay with tubulin (37 °C, vehicle (DMSO) about 0.43), the “final optical density value at 350 nm (OD350)” value is listed as “slightly higher than that of DMSO reaction”. In addition, the “effect on microtubule network, HeLa” value in the assay with HeLa cells is “paclitaxel-like behavior”. Also, the “inhibition of hTopo I supercoil relaxing activity” value in assay [1] is given as “totally inhibition”. In assay [2], the “inhibition of hTopo II decatenation activity” value is reported as “total blockade of hTopoII activity”.
